The values below come from patent US20200338064A1, “HIGH CONCENTRATION LOCAL ANESTHETIC FORMULATIONS” (priority 2007, published 2020).

The data set is described as follows: Solubility and compatibility of lidocaine and lidocaine HCl at 40% w/w in solvent blends. The class given is physicochemical. The conditions noted are these: two weeks at accelerated conditions versus initial.

Protocol: The solubility and compatibility of lidocaine and lidocaine HCl in solvents typically used in topical pharmaceutical products was assessed in order to direct the formulation development efforts.
Initially, the solubility of lidocaine and lidocaine hydrochloride was evaluated in single solvents with varying lipophilicity. […] Based on the single solvent data, a compatibility study was initiated to evaluate the chemical stability of the drug at a concentration of 40% w/w in a variety of solvent blends that would form the base of potential prototype gel or cream formulations.

With `CCN(CC)CC(=O)Nc1c(C)cccc1C` [lidocaine], the “Physical appearance and chemical compatibility in solvent blends” value is “retained their physical appearance”.
